Patent US20250145715A1, “B7-H3 TARGETING FUSION PROTEINS AND METHODS OF USE THEREOF” (GT Biopharma, Inc., priority 2021, published 2025)

Key:
[1] = system: C4-2 prostate cancer cells; assay: NK cell CD107a / IFNγ flow cytometry against C4-2; assay type: cell-based, human; settings: normal donor and prostate cancer patient NK cells, vs controls
Source text: FIG. 15A is a graph showing pooled analysis of proportion of NK cells from healthy donors or prostate cancer patients expressing CD107a+ (top) or IFNγ (bottom) against C4-2 targets (N=9 for healthy donors, N=3 for patients). FIG. 15B is a graph showing pooled analysis of proportion of NK cells from healthy donors or prostate cancer patients expressing CD107a+ (top) or IFNγ (bottom) against DU145 targets (N=9 for healthy donors, N=3 for patients). FIG. 15C is a graph showing pooled analysis of proportion of NK cells from healthy donors or prostate cancer patients expressing CD107a+ (top) or IFNγ (bottom) against LNCaP targets (N=9 for healthy donors, N=3 for patients). FIG. 15D is a graph showing pooled analysis of proportion of NK cells from healthy donors or prostate cancer patients expressing CD107a+ (top) or IFNγ (bottom) against PC3 targets (N=9 for healthy donors, N=3 for patients). * p<0.05, ** p<0.01, *** p<0.001, and **** p<0.0001.
FIG. 23A is a graph illustrating percent CD107a+ NK cells in PBMCNK alone in the presence of 0.3 nM TriKE. […]
ADCC was measured in a flow cytometry assay by evaluating degranulation via CD107a (lysosomal-associated membrane protein LAMP-1) and intracellular IFNγ production. […] Samples were washed and evaluated in an LSRII flow cytometer (BD Biosciences, San Jose, CA, USA). […]

[2] = system: normal immune cells (PBMCs); assay: Background NK cell activity in PBMCs without tumor targets; assay type: cell-based, human
Protocol: ADCC was measured in a flow cytometry assay by evaluating degranulation via CD107a (lysosomal-associated membrane protein LAMP-1) and intracellular IFNγ production. Upon thawing, normal donor and patient-derived PBMCs or ascites cells were rested overnight (37° C., 5% CO2) in RPMI 1640 media supplemented with 10% fetal calf serum (RPMI-10). The next morning, they were suspended with tumor-target cells or media after washing twice with RPMI-10. Cells were then incubated with TriKEs or controls for 10 min at 37° C. Fluorescein isothiocyate (FITC)-conjugated anti-human CD107a monoclonal antibody (BD Biosciences, San Jose, CA, USA) was then added. […] Samples were washed and evaluated in an LSRII flow cytometer (BD Biosciences, San Jose, CA, USA).
The ability of cam1615B7-H3 TriKE to mediate NK cell activity against ovarian cancer cells was evaluated. […] In order to determine if the individual components of the TriKE could induce NK cell activity on their own, the individual cam16 VHH, IL-15, or anti-B7-H3 scFv components were incubated with PBMCs and OVCAR8 cells and activity was determined. […] NK cell activity, from normal donor PBMCs and ascites from the peritoneal cavity of ovarian cancer patients at the time of surgery, was assessed against MA-148 cells, another high-grade serous ovarian adenocarcinoma cell line (FIGS. 29A-29B and 30G-30H). […]

cam1615B7-H3: second-generation TriKE: humanized camelid anti-CD16 VHH, human wild-type IL-15, anti-B7-H3 mAb 376.96 scFv; SEQ ID NO:1
NK cell IFNγ production against C4-2 [1]: enhanced | NK cell degranulation (CD107a) against C4-2 [1]: enhanced | background NK cell IFNγ [2]: No background noise | background NK cell degranulation (CD107a) [2]: some background degranulation (CD107a) on NK cells in comparison to controls, but this activity was low
